Source: patent US9670227B2, “Thienopyrimidine derivatives, a process for their preparation and pharmaceutical compositions containing them” (LES LABORATOIRES SERVIER, priority 2013, dated 2017)
Where two headings read alike, the source gives them in different places.

How the values were obtained:
Mcl-1 protein = Mcl-1 protein (UniProtKB primary accession number: Q07820) (Homo sapiens, UniProt Q07820); experiment: Inhibition of Mcl-1 by fluorescence polarisation, Method 1; assay type: binding; conditions: for IC50: fluorescence polarisation, Method 1, or Method 2, read-out: IC50 (M) Mcl-1 FP
Chain of Mcl-1 protein (Q07820 whole entry): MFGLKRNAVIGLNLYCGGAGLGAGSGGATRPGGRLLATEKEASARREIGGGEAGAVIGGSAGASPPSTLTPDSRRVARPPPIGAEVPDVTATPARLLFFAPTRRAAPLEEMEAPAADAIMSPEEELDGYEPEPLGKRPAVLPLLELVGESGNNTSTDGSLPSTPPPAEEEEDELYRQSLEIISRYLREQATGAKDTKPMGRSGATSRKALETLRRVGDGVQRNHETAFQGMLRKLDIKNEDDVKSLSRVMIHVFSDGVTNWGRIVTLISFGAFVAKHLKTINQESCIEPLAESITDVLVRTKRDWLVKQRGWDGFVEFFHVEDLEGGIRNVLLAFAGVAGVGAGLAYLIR
In short: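 FP readout of relative binding potency. Mcl-1 5 nM final, fluorescein-labelled ligand 1 nM final; buffer 10 mM HEPES, 150 mM NaCl, 0.05% Tween 20, pH 7.4; 11-pt dilution series, 5% DMSO final.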

[1] = system: H929 multiple myeloma tumour line; experiment: In vitro cytotoxicity, Microculture Tetrazolium Assay; assay type: cell-based; conditions: H929 cells, 48 hours exposure, MTT, read-out: IC50 (μM) MTT H929
Protocol: The cytotoxicity studies were carried out on the H929 multiple myeloma tumour line.
The cells are distributed onto microplates and exposed to the test compounds for 48 hours.

Structure (SMILES) | IC50 (Mcl-1 protein) | IC50 ([1]; Homo sapiens, NCI-H929, 48 h) | percentage fluorescence polarisation inhibition, Mcl-1 FP (Mcl-1 protein; partial inhibitors, @ 10 uM test compound) | IC50 [1]
CCCCn1nccc1COc1ccccc1CC(Oc1ncnc2sc(-c3cccnc3)c(-c3ccc(OCCN4CCN(C)CC4)c(Cl)c3C)c12)C(=O)O [Example 609, (2R)-3-{2-[(1-butyl-1H-pyrazol-5-yl)methoxy]phenyl}-2-{[(5Sa)-5-{3-chloro-2-methyl-4-[2-(4-methylpiperazin-1-yl)ethoxy]phenyl}-6-(pyridin-3-yl)thieno[2,3-d]pyrimidin-4-yl]oxy}propanoic acid] | 3.5e-09 M | 0.063 µM | – | –
CCCCn1nccc1COc1ccccc1CC(Oc1ncnc2sc(-c3ccn(C)n3)c(-c3ccc(OCCN4CCN(C)CC4)c(Cl)c3C)c12)C(=O)O [Example 610, (2R)-3-{2-[(1-butyl-1H-pyrazol-5-yl)methoxy]phenyl}-2-{[(5Sa)-5-{3-chloro-2-methyl-4-[2-(4-methylpiperazin-1-yl)ethoxy]phenyl}-6-(1-methyl-1H-pyrazol-3-yl)thieno[2,3-d]pyrimidin-4-yl]oxy}propanoic acid] | 3.5e-09 M | 0.091 µM | – | –
C#Cc1sc2ncnc(OC(Cc3ccccc3OCc3ccnn3CCCC)C(=O)O)c2c1-c1ccc(OCCN2CCN(C)CC2)c(Cl)c1C [Example 611, (2R)-3-{2-[(1-butyl-1H-pyrazol-5-yl)methoxy]phenyl}-2-[((5Sa)-5-{3-chloro-2-methyl-4-[2-(4-methylpiperazin-1-yl)ethoxy]phenyl}-6-ethynylthieno[2,3-d]pyrimidin-4-yl)oxy]propanoic acid] | 3.9e-09 M | 0.23 µM | – | –
CCC#Cc1sc2ncnc(OC(Cc3ccccc3OCc3ccnn3CCCC)C(=O)O)c2c1-c1ccc(OCCN2CCN(C)CC2)c(Cl)c1C [Example 612, (2R)-3-{2-[(1-butyl-1H-pyrazol-5-yl)methoxy]phenyl}-2-{[6-(but-1-yn-1-yl)-(5Sa)-5-{3-chloro-2-methyl-4-[2-(4-methylpiperazin-1-yl)ethoxy]phenyl}thieno[2,3-d]pyrimidin-4-yl]oxy}propanoic acid] | 3.5e-09 M | 0.02 µM | – | –
CCCCn1nccc1COc1ccccc1CC(Oc1ncnc2sc(C#CCOC)c(-c3ccc(OCCN4CCN(C)CC4)c(Cl)c3C)c12)C(=O)O [Example 613, (2R)-3-{2-[(1-butyl-1H-pyrazol-5-yl)methoxy]phenyl}-2-{[(5Sa)-5-{3-chloro-2-methyl-4-[2-(4-methylpiperazin-1-yl)ethoxy]phenyl}-6-(3-methoxyprop-1-yn-1-yl)thieno[2,3-d]pyrimidin-4-yl]oxy}propanoic acid] | 3.5e-09 M | 0.158 µM | – | –
CCCCn1nccc1COc1ccccc1CC(Oc1ncnc2sc(C(F)(F)F)c(-c3ccc(OCCN4CCN(C)CC4)c(Cl)c3C)c12)C(=O)O [Example 615, (2R)-3-{2-[(1-butyl-1H-pyrazol-5-yl)methoxy]phenyl}-2-{[(5Sa)-5-{3-chloro-2-methyl-4-[2-(4-methylpiperazin-1-yl)ethoxy]phenyl}-6-(trifluoromethyl)thieno[2,3-d]pyrimidin-4-yl]oxy}propanoic acid] | 8e-10 M | 0.292 µM | – | –
CCCCn1nccc1COc1ccccc1CC(Oc1ncnc2sc(-c3ccc(OCCN4CCOCC4)cc3)c(-c3ccc(OCCN4CCN(C)CC4)c(Cl)c3C)c12)C(=O)O [Example 616, (2R)-3-{2-[(1-butyl-1H-pyrazol-5-yl)methoxy]phenyl}-2-[((5Sa)-5-{3-chloro-2-methyl-4-[2-(4-methylpiperazin-1-yl)ethoxy]phenyl}-6-{4-[2-(morpholin-4-yl)ethoxy]phenyl}thieno[2,3-d]pyrimidin-4-yl)oxy]propanoic acid] | 4e-09 M | 0.07 µM | – | –
CCCCn1nccc1COc1ccccc1CC(Oc1ncnc2sc(CCCOC)c(-c3ccc(OCCN4CCN(C)CC4)c(Cl)c3C)c12)C(=O)O [Example 617, (2R)-3-{2-[(1-butyl-1H-pyrazol-5-yl)methoxy]phenyl}-2-{[(5Sa)-5-{3-chloro-2-methyl-4-[2-(4-methylpiperazin-1-yl)ethoxy]phenyl}-6-(3-methoxypropyl)thieno[2,3-d]pyrimidin-4-yl]oxy}propanoic acid] | 5.4e-09 M | 0.277 µM | – | –
CCCCn1nccc1COc1ccccc1CC(Oc1ncnc2sc(-c3ccc(N4CCOCC4)nc3)c(-c3ccc(OCCN4CCN(C)CC4)c(Cl)c3C)c12)C(=O)O [Example 619, (2R)-3-{2-[(1-butyl-1H-pyrazol-5-yl)methoxy]phenyl}-2-[((5Sa)-5-{3-chloro-2-methyl-4-[2-(4-methylpiperazin-1-yl)ethoxy]phenyl}-6-[6-(morpholin-4-yl)pyridin-3-yl]thieno[2,3-d]pyrimidin-4-yl)oxy]propanoic acid] | 7e-09 M | 0.336 µM | – | –
CCCCn1nccc1COc1ccccc1CC(Oc1ncnc2sc(-c3ccc(NCCOC)nc3)c(-c3ccc(OCCN4CCN(C)CC4)c(Cl)c3C)c12)C(=O)O [Example 620, (2R)-3-{2-[(1-butyl-1H-pyrazol-5-yl)methoxy]phenyl}-2-[((5Sa)-5-{3-chloro-2-methyl-4-[2-(4-methylpiperazin-1-yl)ethoxy]phenyl}-6-{6-[(2-methoxyethyl)amino]pyridin-3-yl}thieno[2,3-d]pyrimidin-4-yl)oxy]propanoic acid] | 5.9e-09 M | 0.532 µM | – | –
CCCCn1nccc1COc1ccccc1CC(Oc1ncnc2sc(-c3ccc(OCCN4CCOCC4)nc3)c(-c3ccc(OCCN4CCN(C)CC4)c(Cl)c3C)c12)C(=O)O [Example 621, (2R)-3-{2-[(1-butyl-1H-pyrazol-5-yl)methoxy]phenyl}-2-[((5Sa)-5-{3-chloro-2-methyl-4-[2-(4-methylpiperazin-1-yl)ethoxy]phenyl}-6-{6-[2-(morpholin-4-yl)ethoxy]pyridin-3-yl}thieno[2,3-d]pyrimidin-4-yl)oxy]propanoic acid] | 5.3e-09 M | 0.095 µM | – | –
CCCCn1nccc1COc1ccccc1CC(Oc1ncnc2sc(-c3ccc(OCCOC)nc3)c(-c3ccc(OCCN4CCN(C)CC4)c(Cl)c3C)c12)C(=O)O [Example 622, (2R)-3-{2-[(1-butyl-1H-pyrazol-5-yl)methoxy]phenyl}-2-[((5Sa)-5-{3-chloro-2-methyl-4-[2-(4-methylpiperazin-1-yl)ethoxy]phenyl}-6-[6-(2-methoxyethoxy)pyridin-3-yl]thieno[2,3-d]pyrimidin-4-yl)oxy]propanoic acid] | 1.1e-08 M | 0.109 µM | – | –
CCOC(=O)[C@@H](Cc1ccccc1OCc1ccnc(OC)n1)Oc1ncnc2sc(-c3ccc(F)o3)c(-c3ccc(OCCN4CCN(C)CC4)c(Cl)c3C)c12 [Example 625, ethyl (2R)-2-{[(5Sa)-5-{3-chloro-2-methyl-4-[2-(4-methylpiperazin-1-yl)ethoxy]phenyl}-6-(5-fluorofuran-2-yl)thieno[2,3-d]pyrimidin-4-yl]oxy}-3-{2-[(2-methoxypyrimidin-4-yl)methoxy]phenyl}propanoate] | – | – | 74.85% @ 10 uM | 0.62 µM
COc1ccccc1CC(Oc1ncnc2sc(-c3ccc(F)cc3)c(-c3ccc(OCCN4CCN(C)CC4)c(Cl)c3C)c12)C(=O)OCOC(=O)C(C)(C)C [Example 643, {[(2R)-2-{[(5Sa)-5-{3-chloro-2-methyl-4-[2-(4-methylpiperazin-1-yl)ethoxy]phenyl}-6-(4-fluorophenyl)thieno[2,3-d]pyrimidin-4-yl]oxy}-3-(2-methoxyphenyl)propanoyl]oxy}methyl 2,2-dimethylpropanoate] | 6.6e-07 M | 0.303 µM | – | –
COc1ccccc1CC(Oc1ncnc2sc(-c3ccc(F)cc3)c(-c3ccc(OCCN4CCN(C)CC4)c(Cl)c3C)c12)C(=O)OCc1oc(=O)oc1C [Example 644, (5-methyl-2-oxo-1,3-dioxol-4-yl)methyl (2R)-2-{[(5Sa)-5-{3-chloro-2-methyl-4-[2-(4-methylpiperazin-1-yl)ethoxy]phenyl}-6-(4-fluorophenyl)thieno[2,3-d]pyrimidin-4-yl]oxy}-3-(2-methoxyphenyl)propanoate] | 3.7e-07 M | 0.248 µM | – | –
COc1ccccc1CC(Oc1ncnc2sc(-c3ccc(F)cc3)c(-c3ccc(OCCN4CCN(C)CC4)c(Br)c3C)c12)C(=O)O [Example 646, (2R)-2-{[(5Sa)-5-{3-bromo-2-methyl-4-[2-(4-methylpiperazin-1-yl)ethoxy]phenyl}-6-(4-fluorophenyl)thieno[2,3-d]pyrimidin-4-yl]oxy}-3-(2-methoxyphenyl)propanoic acid] | 2.1e-08 M | 0.298 µM | – | –
COc1ccccc1CC(Oc1ncnc2sc(-c3ccc(F)cc3)c(-c3ccc(OCCN4CCN(C)CC4)c(Cl)c3Cl)c12)C(=O)O [Example 647, (2R)-2-{[(5Sa)-5-{2,3-dichloro-4-[2-(4-methylpiperazin-1-yl)ethoxy]phenyl}-6-(4-fluorophenyl)thieno[2,3-d]pyrimidin-4-yl]oxy}-3-(2-methoxyphenyl)propanoic acid] | 2.3e-08 M | 0.498 µM | – | –
Cc1c(-c2c(-c3ccc(F)cc3)sc3ncnc(OC(Cc4ccccc4OCC4CCCO4)C(=O)O)c23)ccc(OCC2CCN(C)C2)c1Cl [Example 649, (2R)-2-{[(5Sa)-5-{3-chloro-2-methyl-4-[(1-methylpyrrolidin-3-yl)methoxy]phenyl}-6-(4-fluorophenyl)thieno[2,3-d]pyrimidin-4-yl]oxy}-3-{2-[(2R)-tetrahydrofuran-2-ylmethoxy]phenyl}propanoic acid] | 2.3e-08 M | 0.341 µM | – | –
COc1nccc(COc2ccccc2CC(Oc2ncnc3sc(-c4ccc(F)cc4)c(-c4cnc(OCCN5CCN(C)CC5)c(Cl)c4C)c23)C(=O)O)n1 [Example 651, (2R)-2-{[(5Ra)-5-{5-chloro-4-methyl-6-[2-(4-methylpiperazin-1-yl)ethoxy]pyridin-3-yl}-6-(4-fluorophenyl)thieno[2,3-d]pyrimidin-4-yl]oxy}-3-{2-[(2-methoxypyrimidin-4-yl)methoxy]phenyl}propanoic acid] | 6.8e-09 M | 0.282 µM | – | –
